For experiment [1], the system named is oxazolone-induced ear swelling in mice. In words: Oxazolone-induced dermatitis mouse model: ear thickness. The experiment is classed as in vivo, BALB/c mice. The conditions noted are these: topical 20 μL, 5 mg/mL, 30 minutes before and 15 minutes after oxazolone challenge; measured at 24 hours. On the procedure:
(§1) Male BALB/c mice weighing 22±2 g are used and randomly divided into groups of 5 each. Sham treatment group receive no oxazolone sensitization and challenge, but PBS, plus treated with vehicle (Acetone:ethanol 1:1). All other groups' animals were sensitized by applying oxazolone (100 μL, 1.5% in acetone) onto their preshaved abdominal surface on Day 0, and challenged by oxazolone (1%, 20 μL/ear) seven (7) days later. 20 μL of either Vehicle, Dexamethasone (5 mg/mL; anti-inflammatory positive control), or a combination of Luteolin (1.6-9.6 mg/mL)+Gamma-mangostin (1.2-7.2 mg/mL) were applied topically to the anterior and posterior surfaces of the right ear 30 minutes before and 15 minutes after oxazolone challenge. Left ear was unstimulated and treated as a control.
(§2) The right and left ear thickness of each mouse were measured at 24 hours after oxazolone challenge as an index of inflammation. The right ear was harvested and snap frozen for cytokine gene expression analysis.

In experiment [2] the test system is cytokine gene expression in ears of mice stimulated with oxazolone. In words: Oxazolone-induced dermatitis mouse model: cytokine gene expression in ear. The experiment is classed as in vivo, BALB/c mice. The conditions noted are these: right ear; topical; Dexamethasone 5 mg/mL or Luteolin (1.6-9.6 mg/mL)+Gamma-mangostin (1.2-7.2 mg/mL). On the procedure:
as §1, §2

Experiment [3] concerns LPS-injected mice. In words: LPS-induced systemic inflammation mouse model: blood cytokine levels. In kind it is in vivo, C57Bl/6 mice. Particulars: intraperitoneal 1 hour prior to LPS (1 mg/kg); Dexamethasone 5 mg/kg or Luteolin+Gamma-mangostin 4+4.5 mg/kg; serum or plasma. On the procedure: C57Bl/6 male mice, 6-8 weeks old, weighing 22±2 g were randomly divided into groups of 5-6 each. Sham animals were injected intra-peritoneally with PBS only. All other groups were intraperitoneally injected with either Vehicle control, Dexamethasone (5 mg/kg), or a combination of Luteolin+Gamma-mangostin (4+4.5 mg/kg) at 1 hour prior to injection with LPS (1 mg/kg), an agent known to trigger systemic inflammation. After LPS injection, blood was collected at different time points: 30 min, 2 h, 4 h and 24 h and the processed serum or plasma were used for further cytokine analysis through LUMINEX or Ella Automated Immunoassay System (Protein Simple).

Experiment [4] has as its system Differentiated THP-1 macrophages stimulated with IFN-gamma and LPS. In words: THP1 cytokine secretion assay. In kind it is cell-based, Human. The conditions noted are these: for greatest IL6 inhibition to: IL6 secretion; for greatest TNFa inhibition to: TNFa secretion. On the procedure:
Human THP-1 cells were plated and differentiated into macrophages through treatment with phorbol 12-myristate 13-acetate and beta-mercaptoethanol for 72 hours. Differentiated THP-1 macrophages were then stimulated with IFN-gamma (20 ng/mL) and LPS (50 ng/mL) to induce an inflammatory response and co-treated with gamma-mangostin and/or luteolin at 0, 0.2, 0.5, 2, 5, 10 uM. Various secreted cytokines were measured from the media using the Ella Automated Immunoassay System (ProteinSimple).

[5] abbreviates: Gamma-mangostin alone at 10 uM (0-10 uM tested).
The mark [6] stands for this setting: Luteolin alone at 0.5 uM (0-10 uM tested).

We go through three compounds from US20250302797A1, “COMBINATION THERAPIES FOR TREATING INFLAMMATION” (Flagship Pioneering Innovations VI, LLC, priority 2022, published 2025).

The structures appear in SMILES notation.

In the case of `C[C@@H]1C[C@H]2[C@@H]3CCC4=CC(=O)C=C[C@]4(C)[C@@]3(F)[C@@H](O)C[C@]2(C)[C@@]1(O)C(=O)CO` [Dexamethasone], the “reduction in ear thickness compared to the Vehicle-treated ears” value in experiment [1] turned out to be 29%. Besides, in experiment [2], the “Ifng gene expression (% of Vehicle control)” value was 445%, the “Il1b gene expression (% of Vehicle control)” value amounted to 5%, the “Il4 gene expression (% of Vehicle control)” value is listed as 24% and the “Il6 gene expression (% of Vehicle control)” value is 33%. Further, in experiment [2], the “Il11 gene expression (% of Vehicle control)” value is 55%, the “Il13 gene expression (% of Vehicle control)” value came to 20% and the “Tnfa gene expression (% of Vehicle control)” value stood at 14%. Also, in experiment [3], the “CXCL1 level, % of the Vehicle” value amounted to 57%; the “MIP1-beta level, % of the Vehicle” value is listed as 29%; the “TNFa level, % of the Vehicle” value turned out to be 12%.
With `CC(C)=CCc1c(O)cc2oc3cc(O)c(O)c(CC=C(C)C)c3c(=O)c2c1O` [Gamma-mangostin, Gamma-Mangostin], in experiment [4] (setting [5]), the “greatest IL6 inhibition to” value worked out at 53% and the “greatest TNFa inhibition to” value was 45%.
`O=c1cc(-c2ccc(O)c(O)c2)oc2cc(O)cc(O)c12` [Luteolin]: in experiment [4] (setting [6]), the “greatest IL6 inhibition to” value is 53.7% and the “greatest TNFa inhibition to” value is given as 45.6%.
